Experiments:
Assay type in all cases: toxicity, organism-based
Salmonella typhimurium [1] = assay: Mutagenicity in Salmonella typhimurium TA102 assessed as mutagenicity index at 570.37 uM/plate incubated for 90 mins at 37 degC in presence of liver S9 fractions by Ames test relative to untreated control; settings: salmonella enterica subsp. enterica serovar typhimurium, s9, 1.5 h
Salmonella typhimurium [2] = assay: Mutagenicity in Salmonella typhimurium TA102 assessed as mutagenicity index at 296.15 uM/plate incubated for 90 mins at 37 degC in absence of liver S9 fractions by Ames test relative to untreated control; settings: salmonella enterica subsp. enterica serovar typhimurium, 1.5 h
Salmonella typhimurium [3] = assay: Mutagenicity in Salmonella typhimurium TA100 assessed as mutagenicity index at 700.00 uM/plate incubated for 90 mins at 37 degC in presence of liver S9 fractions by Ames test relative to untreated control; settings: salmonella enterica subsp. enterica serovar typhimurium, s9, 1.5 h
Salmonella typhimurium [4] = assay: Mutagenicity in Salmonella typhimurium TA98 assessed as mutagenicity index at 700.00 uM/plate incubated for 90 mins at 37 degC in absence of liver S9 fractions by Ames test relative to untreated control; settings: salmonella enterica subsp. enterica serovar typhimurium, 1.5 h
Salmonella typhimurium [5] = assay: Mutagenicity in Salmonella typhimurium TA100 assessed as mutagenicity index at 435.85 uM/plate incubated for 90 mins at 37 degC in presence of liver S9 fractions by Ames test relative to untreated control; settings: salmonella enterica subsp. enterica serovar typhimurium, s9, 1.5 h
Salmonella typhimurium [6] = assay: Mutagenicity in Salmonella typhimurium TA98 assessed as mutagenicity index at 296.15 uM/plate incubated for 90 mins at 37 degC in absence of liver S9 fractions by Ames test relative to untreated control; settings: salmonella enterica subsp. enterica serovar typhimurium, 1.5 h
Salmonella typhimurium [7] = assay: Mutagenicity in Salmonella typhimurium TA97a assessed as mutagenicity index at 700.00 uM/plate incubated for 90 mins at 37 degC in absence of liver S9 fractions by Ames test relative to untreated control; settings: salmonella enterica subsp. enterica serovar typhimurium, 1.5 h
Salmonella typhimurium [8] = assay: Mutagenicity in Salmonella typhimurium TA98 assessed as mutagenicity index at 570.37 uM/plate incubated for 90 mins at 37 degC in absence of liver S9 fractions by Ames test relative to untreated control; settings: salmonella enterica subsp. enterica serovar typhimurium, 1.5 h
Salmonella typhimurium [9] = assay: Mutagenicity in Salmonella typhimurium TA97a assessed as mutagenicity index at 435.85 uM/plate incubated for 90 mins at 37 degC in presence of liver S9 fractions by Ames test relative to untreated control; settings: salmonella enterica subsp. enterica serovar typhimurium, s9, 1.5 h
Salmonella typhimurium [10] = assay: Mutagenicity in Salmonella typhimurium TA97a assessed as mutagenicity index at 150.98 uM/plate incubated for 90 mins at 37 degC in presence of liver S9 fractions by Ames test relative to untreated control; settings: salmonella enterica subsp. enterica serovar typhimurium, s9, 1.5 h
Salmonella typhimurium [11] = assay: Mutagenicity in Salmonella typhimurium TA97a assessed as mutagenicity index at 296.15 uM/plate incubated for 90 mins at 37 degC in absence of liver S9 fractions by Ames test relative to untreated control; settings: salmonella enterica subsp. enterica serovar typhimurium, 1.5 h
Salmonella typhimurium [12] = assay: Mutagenicity in Salmonella typhimurium TA100 assessed as mutagenicity index at 296.15 uM/plate incubated for 90 mins at 37 degC in absence of liver S9 fractions by Ames test relative to untreated control; settings: salmonella enterica subsp. enterica serovar typhimurium, 1.5 h
Salmonella typhimurium [13] = assay: Mutagenicity in Salmonella typhimurium TA97a assessed as mutagenicity index at 570.37 uM/plate incubated for 90 mins at 37 degC in presence of liver S9 fractions by Ames test relative to untreated control; settings: salmonella enterica subsp. enterica serovar typhimurium, s9, 1.5 h
Salmonella typhimurium [14] = assay: Mutagenicity in Salmonella typhimurium TA100 assessed as mutagenicity index at 905.66 uM/plate incubated for 90 mins at 37 degC in presence of liver S9 fractions by Ames test relative to control; settings: salmonella enterica subsp. enterica serovar typhimurium, s9, 1.5 h
Salmonella typhimurium [15] = assay: Mutagenicity in Salmonella typhimurium TA97a assessed as mutagenicity index at 616.38 uM/plate incubated for 90 mins at 37 degC in absence of liver S9 fractions by Ames test relative to control; settings: salmonella enterica subsp. enterica serovar typhimurium, 1.5 h
Salmonella typhimurium [16] = assay: Mutagenicity in Salmonella typhimurium TA97a assessed as mutagenicity index at 905.66 uM/plate incubated for 90 mins at 37 degC in absence of liver S9 fractions by Ames test relative to control; settings: salmonella enterica subsp. enterica serovar typhimurium, 1.5 h
Salmonella typhimurium [17] = assay: Mutagenicity in Salmonella typhimurium TA100 assessed as mutagenicity index at 616.38 uM/plate incubated for 90 mins at 37 degC in presence of liver S9 fractions by Ames test relative to control; settings: salmonella enterica subsp. enterica serovar typhimurium, s9, 1.5 h
Salmonella typhimurium [18] = assay: Mutagenicity in Salmonella typhimurium TA102 assessed as mutagenicity index at 616.38 uM/plate incubated for 90 mins at 37 degC in presence of liver S9 fractions by Ames test relative to control; settings: salmonella enterica subsp. enterica serovar typhimurium, s9, 1.5 h
Salmonella typhimurium [19] = assay: Mutagenicity in Salmonella typhimurium TA97a assessed as mutagenicity index at 1454.55 uM/plate incubated for 90 mins at 37 degC in presence of liver S9 fractions by Ames test relative to control; settings: salmonella enterica subsp. enterica serovar typhimurium, s9, 1.5 h
Salmonella typhimurium [20] = assay: Mutagenicity in Salmonella typhimurium TA102 assessed as mutagenicity index at 313.73 uM/plate incubated for 90 mins at 37 degC in presence of liver S9 fractions by Ames test relative to control; settings: salmonella enterica subsp. enterica serovar typhimurium, s9, 1.5 h
Salmonella typhimurium [21] = assay: Mutagenicity in Salmonella typhimurium TA98 assessed as mutagenicity index at 1185.19 uM/plate incubated for 90 mins at 37 degC in absence of liver S9 fractions by Ames test relative to control; settings: salmonella enterica subsp. enterica serovar typhimurium, 1.5 h
Salmonella typhimurium [22] = assay: Mutagenicity in Salmonella typhimurium TA98 assessed as mutagenicity index at 905.66 uM/plate incubated for 90 mins at 37 degC in presence of liver S9 fractions by Ames test relative to control; settings: salmonella enterica subsp. enterica serovar typhimurium, s9, 1.5 h
Salmonella typhimurium [23] = assay: Mutagenicity in Salmonella typhimurium TA102 assessed as mutagenicity index at 1454.55 uM/plate incubated for 90 mins at 37 degC in absence of liver S9 fractions by Ames test relative to control; settings: salmonella enterica subsp. enterica serovar typhimurium, 1.5 h
Salmonella typhimurium [24] = assay: Mutagenicity in Salmonella typhimurium TA102 assessed as mutagenicity index at 313.73 uM/plate incubated for 90 mins at 37 degC in absence of liver S9 fractions by Ames test relative to control; settings: salmonella enterica subsp. enterica serovar typhimurium, 1.5 h
Salmonella typhimurium [25] = assay: Mutagenicity in Salmonella typhimurium TA97a assessed as mutagenicity index at 1454.55 uM/plate incubated for 90 mins at 37 degC in absence of liver S9 fractions by Ames test relative to control; settings: salmonella enterica subsp. enterica serovar typhimurium, 1.5 h
Salmonella typhimurium [26] = assay: Mutagenicity in Salmonella typhimurium TA100 assessed as mutagenicity index at 1454.55 uM/plate incubated for 90 mins at 37 degC in presence of liver S9 fractions by Ames test relative to control; settings: salmonella enterica subsp. enterica serovar typhimurium, s9, 1.5 h

Q: With `CS(=O)(=O)OCCCCCCCCCCCCn1cc(CCCO)nn1` as the compound, how does the Activity_index (Salmonella typhimurium [1]) read?
A: 1.4

Q: What about the Activity_index (Salmonella typhimurium [2]) of the same compound?
A: 0.9

Q: And the Activity_index (Salmonella typhimurium [3])?
A: 0.9

Q: What about the Activity_index (Salmonella typhimurium [4]) of the same compound?
A: 1.3

Q: And the Activity_index (Salmonella typhimurium [5])?
A: 0.7

Q: And the Activity_index (Salmonella typhimurium [6])?
A: 1.2

Q: What about the Activity_index (Salmonella typhimurium [7]) of the same compound?
A: 1.1

Q: And the Activity_index (Salmonella typhimurium [8])?
A: 1.3

Q: What about the Activity_index (Salmonella typhimurium [9]) of the same compound?
A: 0.9

Q: And the Activity_index (Salmonella typhimurium [10])?
A: 0.9

Q: What about the Activity_index (Salmonella typhimurium [11]) of the same compound?
A: 1.1

Q: What about the Activity_index (Salmonella typhimurium [12]) of the same compound?
A: 1.3

Q: What about the Activity_index (Salmonella typhimurium [13]) of the same compound?
A: 1

Q: With `CCOC(=O)c1cn(CCCCCCCCCOS(C)(=O)=O)nn1` as the compound, how does the Activity_index (Salmonella typhimurium [14]) read?
A: 1

Q: And the Activity_index (Salmonella typhimurium [15])?
A: 1.6

Q: What about the Activity_index (Salmonella typhimurium [16]) of the same compound?
A: 1.8

Q: What about the Activity_index (Salmonella typhimurium [17]) of the same compound?
A: 1

Q: What about the Activity_index (Salmonella typhimurium [18]) of the same compound?
A: 1.7

Q: What about the Activity_index (Salmonella typhimurium [19]) of the same compound?
A: 0.8

Q: What about the Activity_index (Salmonella typhimurium [20]) of the same compound?
A: 1.4

Q: And the Activity_index (Salmonella typhimurium [21])?
A: 1.5

Q: And the Activity_index (Salmonella typhimurium [22])?
A: 1

Q: What about the Activity_index (Salmonella typhimurium [23]) of the same compound?
A: 1.1

Q: What about the Activity_index (Salmonella typhimurium [24]) of the same compound?
A: 1.2

Q: What about the Activity_index (Salmonella typhimurium [25]) of the same compound?
A: 1.4

Q: What about the Activity_index (Salmonella typhimurium [26]) of the same compound?
A: 0.9
